In patent US7705022B2, “IDO inhibitors and methods of use thereof” (Lankenau Institute for Medical Research, priority 2005, dated 2010):
Each block holds one compound with its values, some of them ahead of it.

Assays:
human IDO = human IDO (Homo sapiens, UniProt P14902); test: IDO inhibition assay (formation of kynurenine, read at 490 nm); assay type: biochemical; settings: for Ki / Ki (IDO inhibition data): average of two or three trials, inhibitors tested at 200 and 400 μM, L-Trp 200 to 25 μM, N.I. = no inhibition detected
Sequence of human IDO (P14902 whole entry): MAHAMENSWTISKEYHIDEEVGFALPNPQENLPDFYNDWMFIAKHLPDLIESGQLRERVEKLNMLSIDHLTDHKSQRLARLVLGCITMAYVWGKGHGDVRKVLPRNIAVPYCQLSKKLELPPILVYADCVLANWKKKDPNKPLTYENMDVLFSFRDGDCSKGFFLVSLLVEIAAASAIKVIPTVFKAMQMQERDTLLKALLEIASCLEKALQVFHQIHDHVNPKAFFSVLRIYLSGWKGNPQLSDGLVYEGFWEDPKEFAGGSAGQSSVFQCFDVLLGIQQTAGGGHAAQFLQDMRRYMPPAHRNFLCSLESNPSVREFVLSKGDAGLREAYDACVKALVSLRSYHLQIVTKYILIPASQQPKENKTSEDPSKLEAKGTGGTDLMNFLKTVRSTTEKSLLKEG

IDO = settings: cited from earlier work; for type of IDO inhibition: literature

IDO inhibitory activity in words (human IDO): significant inhibitory activity | Ki (human IDO): 62.4 µM
Compound: CSC(=S)NCCc1ccccc1 [Compound 9, N-Phenethyl-S-methyl-dithiocarbamate]

Compound: c1ccc2c(c1)[nH]c1cnccc12 [β-carboline]
type of IDO inhibition (IDO): non-competitive

Compound: S=C(S)N1CCCC1 [pyrrolidine dithiocarbamate]
effect on IDO in words (IDO; literature report): inhibits IDO

Ki (human IDO): 180 µM
Compound: N-(Adamant-2-yl)-S-methyl-dithiocarbamate [Compound 6]

Compound: CCCCc1cc2c(cn1)[nH]c1ccccc12 [3-butyl-β-carboline]
Ki (IDO; literature value): 3.3 µM | type of IDO inhibition (IDO): non-competitive

IDO inhibitory activity in words (human IDO): complete loss in inhibitory activity | Ki (IDO inhibition data) (human IDO): N.I.
Compound: CSC(=O)NCc1c[nH]c2ccccc12 [Compound 21, Brassitin, reference compound]

melting point: 148 to 150 °C | IDO inhibitory activity in words (human IDO): weaker or no inhibition | Ki (IDO inhibition data) (human IDO): N.I.^a
Compound: CNC(=S)NCc1c[nH]c2ccccc12 [Compound 19, N-[l-(Indol-3-yl)methyl]-N′-methyl-thiourea]
